Reference: patent US20240299492A1, “COMBINATION THERAPIES WITH SIRP ALPHA-BASED CHIMERIC PROTEINS” (Shattuck Labs, Inc., priority 2021, published 2024)

Columns and labels:
[1] = system: CT26 tumor cells; test: In vivo anti-tumor efficacy, CT26 colorectal carcinoma mouse allograft model; set-up: species or system BALB/C mice
Experimental: The efficacy of the SIRPα-Fc-CD40L chimeric protein was evaluated in combination with a spindle toxin. Towards that, the ability of paclitaxel and chimeric proteins to target and reduce tumor volume in vivo was determined. Briefly, BALB/C mice were inoculated with 500,000 CT26 tumor cells. When tumor volumes were approximately 50 to 60 mm^3 (day 0), the mice were randomly distributed in the following treatment groups: (1) vehicle only control, (2) 300 μg of the SIRPα-Fc-CD40L chimeric protein alone, (3) 24 mg/kg paclitaxel alone, and (4) a combination 300 μg of the SIRPα-Fc-CD40L chimeric protein and 24 mg/kg paclitaxel. The mice were dosed on days 0, 3 and 6 via intraperitoneal injections. Tumors were measured with electronic calipers on day 14 and plotted using the GraphPad Prism software.
The efficacy of the SIRPα-Fc-CD40L chimeric protein was evaluated in combination with an antimetabolite or. Towards that, the ability of 5-fluorouracil and chimeric proteins to target and reduce tumor volume in vivo was determined. Briefly, BALB/C mice were inoculated with 500,000 CT26 tumor cells. When tumor volumes were approximately 50 to 60 mm^3 (day 0), the mice were randomly distributed in the following treatment groups: (1) vehicle only control, (2) 300 μg of the SIRPα-Fc-CD40L chimeric protein alone, (3) 20 mg/kg 5-fluorouracil alone, and (4) a combination 300 μg of the SIRPα-Fc-CD40L chimeric protein and 20 mg/kg 5-fluorouracil. The mice were dosed via intraperitoneal injections as follows: the SIRPα-Fc-CD40L chimeric protein was administered on days 0, 3 and 6; and 5-fluorouracil was administered on days 0, 2 and 4. Tumors were measured with electronic calipers on day 11 and plotted using the GraphPad Prism software.
The efficacy of the SIRPα-Fc-CD40L chimeric protein was evaluated in combination with a topoisomerase I inhibitor. Towards that, the ability of irinotecan and chimeric proteins to target and reduce tumor volume in vivo was determined. Briefly, BALB/C mice were inoculated with 500,000 CT26 tumor cells. When tumor volumes were approximately 50 to 60 mm^3 (day 0), the mice were randomly distributed in the following treatment groups: (1) vehicle only control, (2) 300 μg of the SIRPα-Fc-CD40L chimeric protein alone, (3) 25 mg/kg irinotecan alone, and (4) a combination 300 μg of the SIRPα-Fc-CD40L chimeric protein and 25 mg/kg irinotecan. The mice were dosed on days 0 and 2 via intraperitoneal injections. Tumors were measured with electronic calipers on day 4 and plotted using the GraphPad Prism software.
The efficacy of the SIRPα-Fc-CD40L chimeric protein was evaluated in combination with an anthracycline. Towards that, the ability of doxorubicin and chimeric proteins to target and reduce tumor volume in vivo was determined. Briefly, BALB/C mice were inoculated with 500,000 CT26 tumor cells. When tumor volumes were approximately 50 to 60 mm^3 (day 0), the mice were randomly distributed in the following treatment groups: (1) vehicle only control, (2) 300 μg of the SIRPα-Fc-CD40L chimeric protein alone, (3) 8 mg/kg doxorubicin alone, and (4) a combination 300 μg of the SIRPα-Fc-CD40L chimeric protein and 8 mg/kg doxorubicin. The mice were dosed with the SIRPα-Fc-CD40L chimeric protein on days 0, 3 and 6 via intraperitoneal injections, and with doxorubicin thrice through the tail vein. Tumors were measured with electronic calipers on day 7 and plotted using the GraphPad Prism software.
The efficacy of the SIRPα-Fc-CD40L chimeric protein was evaluated in combination with a platinum compound. Towards that, the ability of cisplatin and chimeric proteins to target and reduce tumor volume in vivo was determined. Briefly, BALB/C mice were inoculated with 500,000 CT26 tumor cells. […]

[2] = system: ARD1 human multiple myeloma (MM) cells; test: Phagocytosis of ARD1 cells by human macrophages (flow cytometry): bortezomib and/or SIRPα-Fc-CD40L; assay type: cell-based; conditions: 1 pM bortezomib overnight and/or SIRPα-Fc-CD40L for 4 hours; combination p<0.0001 vs control; FIG. 3B
Experimental: (§1) In another experiment, the ARD1 human multiple myeloma (MM) cells were labeled with a green fluorescent tracker and treated with vehicle alone control or 1 pM bortezomib overnight. The following day, the tumor cells were washed in PBS and then co-cultured with human macrophages with or without the SIRPα-Fc-CD40L chimeric protein for 4 hours at 37° C. in the presence of 5% CO2. After this incubation, the cells were harvested and treated with an anti-CD11b antibody (a macrophage marker) and were analyzed using flow cytometry. Positive phagocytosis was determined by the overlap in signals of tumor (the green fluorescent tracker) and macrophage (anti-CD11b antibody staining). A phagocytosis index was calculated by setting the maximum phagocytosis value to 1, and then normalizing all other replicates accordingly. The phagocytosis index was plotted for the indicated treatments.

[3] = system: MM1R human multiple myeloma (MM) cells; test: Phagocytosis of MM1R cells by human macrophages (flow cytometry): bortezomib and/or SIRPα-Fc-CD40L; assay type: cell-based; conditions: 1 pM bortezomib overnight and/or SIRPα-Fc-CD40L for 4 hours; combination p<0.0001 vs control; FIG. 3A
Experimental: as §1, with “Briefly,” for “In another experiment,”, “MM1R” for “ARD1”

[4] = system: KMS12B multiple myeloma cells; test: Phagocytosis of KMS12B cells by M1 macrophages with activated T cells (flow cytometry): pomalidomide with or without SIRPα-Fc-CD40L; assay type: cell-based, human; conditions: 10 μM pomalidomide, CD3/CD28 activated T cells, M1 polarized macrophages, 4 hours; FIG. 7
Experimental: Briefly, CD14+ monocytes were isolated from human donor PBMCs and cultured with m-CSF (100 ng/ml) for 6 days. On day 6, IFNγ (100 ng/ml) and LPS (10 ng/ml) were added to the cells for an additional 24 hours, generating M1 polarized macrophages. On day 5 of the macrophage differentiation, another vial of PBMCs from the same human donor was thawed, and CD3 T cells were isolated using a magnetic bead isolation kit. These T cells were activated for 2 days with CD3/CD28 T cell magnetic activation beads. On day 7 when both the macrophages and T cells were activated and ready, they were combined with KMS12B multiple myeloma cells, which were labeled with a green fluorescent tracker, with 10 μM pomalidomide and with or without 50 μg/ml of the SIPRα-Fc-CD40L chimeric protein. KMS12B cells incubated with the macrophages and 10 μM pomalidomide, without T cells, were used as a negative control. This coculture was incubated for 4 hours at 37° C., 5% CO2. After this incubation, the cells were harvested and treated with an anti-CD11b antibody (a macrophage marker) and were analyzed using flow cytometry. Positive phagocytosis was determined by the overlap in signals of tumor (the green fluorescent tracker) and macrophage (anti-CD11b antibody staining). A phagocytosis index was calculated by setting the maximum phagocytosis value to 1, and then normalizing all other replicates accordingly. […]

[5] = system: ARD1 human multiple myeloma (MM) cells; test: Phagocytosis of ARD1 cells by human macrophages (IncuCyte phRodo Red imaging): daratumumab and/or SIRPα-Fc-CD40L; assay type: cell-based; conditions: 1 μg/ml daratumumab and/or 10 μg/ml SIRPα-Fc-CD40L, 2 hours, combination p<0.0001 vs vehicle, FIG. 6
Experimental: Briefly, the ARD1 human multiple myeloma (MM) cells were labeled the IncuCyte phRodo Red cell labeling kit and co-cultured with human macrophages and treated with (1) vehicle alone control, (2) 10 μg/ml of the SIRPα-Fc-CD40L chimeric protein, (3) 1 μg/ml of daratumumab (an antibody-dependent cellular phagocytosis (ADCP)-proficient anti-CD38 antibody), or (4) 1 μg/ml of an daratumumab and 10 μg/ml of the SIRPα-Fc-CD40L chimeric protein and incubated at 37° C. in the presence of 5% CO2 for 2 hours. Cultures were imaged using the IncuCyte time-lapse microscopy system, and positive phagocytosis was determined by an increase in red fluorescent intensity which occurs when the phRodo Red labeled tumor cell is internalized into the acidic macrophage phagosome. A phagocytosis index was calculated by setting the maximum phagocytosis value to 1, and then normalizing all other replicates accordingly. The phagocytosis index was plotted for the indicated treatments.

[6] = system: ARD1 human multiple myeloma cells; test: Phagocytosis of ARD1 cells by human macrophages (flow cytometry): elotuzumab and/or SIRPα-Fc-CD40L; assay type: cell-based; conditions: 1 μg/ml elotuzumab and/or SIRPα-Fc-CD40L (10 μg/ml alone; 10 pg/ml in the combination), 4 hours; combination p<0.05 vs vehicle; FIG. 8
Experimental: Briefly, the ARD1 human multiple myeloma cells were labeled with a green fluorescent tracker and co-cultured with human macrophages and treated with (1) vehicle alone control, (2) 10 μg/ml of the SIRPα-Fc-CD40L chimeric protein, (3) 1 μg/ml of elotuzumab (an antibody-dependent cellular phagocytosis (ADCP)-proficient anti-SLAMF7 antibody), or (4) 1 μg/ml of elotuzumab and 10 pg/ml of the SIRPα-Fc-CD40L chimeric protein and incubated at 37° C. in the presence of 5% CO2 for 4 hours. After this incubation, the cells were harvested and treated with an anti-CD11b antibody (a macrophage marker) and were analyzed using flow cytometry. Positive phagocytosis was determined by the overlap in signals of tumor (the green fluorescent tracker) and macrophage (anti-CD11b antibody staining). A phagocytosis index was calculated by setting the maximum phagocytosis value to 1, and then normalizing all other replicates accordingly. The phagocytosis index was plotted for the indicated treatments.

O=c1[nH]cc(F)c(=O)[nH]1 [5-fluorouracil]
tumor size ([1]; day 11, 300 μg SIRPα-Fc-CD40L (days 0, 3, 6) and/or 20 mg/kg 5-fluorouracil (days 0, 2, 4), intraperitoneal, combination vs vehicle p<0.01, vs 5-fluorouracil alone p<0.05, FIG. 10B): reduction in tumor size

CC(C)C[C@H](NC(=O)[C@H](Cc1ccccc1)NC(=O)c1cnccn1)B(O)O [bortezomib]
level of phagocytosis (phagocytosis index) compared to the control ARD1 cells [2]: increased level of phagocytosis
level of phagocytosis (phagocytosis index) compared to the control MM1R cells [3]: increased level of phagocytosis

N.N.[Cl][Pt][Cl] [cisplatin]
tumor size ([1]; day 4, 300 μg SIRPα-Fc-CD40L (days 0 and 3) and/or 200 μg cisplatin (day 0), intraperitoneal, FIG. 10E): reduction in tumor size

COc1cccc2c1C(=O)c1c(O)c3c(c(O)c1C2=O)C[C@@](O)(C(=O)CO)C[C@@H]3O[C@H]1C[C@H](N)[C@H](O)[C@H](C)O1 [doxorubicin]
tumor size ([1]; day 7, 300 μg SIRPα-Fc-CD40L (intraperitoneal, days 0, 3, 6) and/or 8 mg/kg doxorubicin (thrice, tail vein), FIG. 10D): reduction in tumor size

CCc1c2c(nc3ccc(OC(=O)N4CCC(N5CCCCC5)CC4)cc13)-c1cc3c(c(=O)n1C2)COC(=O)[C@]3(O)CC [irinotecan]
tumor size ([1]; day 4, 300 μg SIRPα-Fc-CD40L and/or 25 mg/kg irinotecan, intraperitoneal, days 0 and 2, FIG. 10C): reduction in tumor size

O=C1[O][Pt]2([NH][C@@H]3CCCC[C@H]3[NH]2)[O]C1=O [oxaliplatin]
tumor size ([1]; day 4, 300 μg SIRPα-Fc-CD40L (days 0 and 3) and/or 10 mg/kg oxaliplatin (day 0), intraperitoneal, FIG. 10F): reduction in tumor size

CC(=O)O[C@H]1C(=O)[C@@]2(C)[C@H]([C@H](OC(=O)c3ccccc3)[C@]3(O)C[C@H](OC(=O)[C@H](O)[C@@H](NC(=O)c4ccccc4)c4ccccc4)C(C)=C1C3(C)C)[C@]1(OC(C)=O)CO[C@@H]1C[C@@H]2O [paclitaxel]
tumor size ([1]; day 14, 300 μg SIRPα-Fc-CD40L and/or 24 mg/kg paclitaxel, intraperitoneal, days 0, 3 and 6, FIG. 10A): reduction in tumor size

Nc1cccc2c1C(=O)N(C1CCC(=O)NC1=O)C2=O (centres unmarked) [pomalidomide]
phagocytosis of KMS12B cells incubated with T cells, macrophages and pomalidomide compared to incubation without T cells (negative control) [4]: increased phagocytosis

daratumumab: an antibody-dependent cellular phagocytosis (ADCP)-proficient anti-CD38 antibody
level of phagocytosis (phagocytosis index) compared to the vehicle only-treated ARD1 cells [5]: increased level of phagocytosis

elotuzumab: an antibody-dependent cellular phagocytosis (ADCP)-proficient anti-SLAMF7 antibody
level of phagocytosis (phagocytosis index) compared to the vehicle only-treated ARD1 cells [6]: increased level of phagocytosis
